Test [1] deals with IL-17A-induced G-CSF production in human normal keratinocytes (NHK). The test is described as follows: NHK Assay: IL-17A-induced G-CSF production in human normal keratinocytes. It counts as cell-based. The conditions noted are these: IL-17A 5 ng/mL, 24 h, 5% FBS, simple average if tested more than once. In outline: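 Adult normal human keratinocytes treated 24 h at 37 °C with IL-17A (5 ng/mL final) pre-incubated 1 h at rt with titrated compound; 0.2% DMSO, 5% FBS. G-CSF in supernatant measured by HTRF against a standard curve to give IC50; viability checked by CellTiter-Glo.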

Test [2] has as its target IL-17A(FLAG-Tagged): IL-17RA(His-Tagged) (Homo sapiens, UniProt Q16552, K93Q). Kind of test: IL-17A(FLAG-Tagged): IL-17RA(His-Tagged) Binding Disruption Eu-HTRF Assay. Conditions: disruption of IL-17A/IL-17RA binding; simple average if tested more than once. In outline:
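Compound (22-point 2-fold series) was preincubated 1 h at rt with FLAG-IL-17A, then His-IL-17RA, Eu-anti-FLAG and D2-anti-His were added in PBS/0.01% Triton X-100 with 200 mM KF for 2 h at rt. The ratio of 665 and 620 nm intensities versus concentration was fitted to one-site competition for IC50.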

Results on 14 compounds are retold here after patent publication US12559496B2, “Imidazopyrimidines as modulators of IL-17” (Janssen Pharmaceutica NV, priority 2020, dated 2026).

Molecules are shown by their SMILES. Where only a bound is given, the exact number is not on record here.

Sequence of UniProt Q16552 (Q16552 with tags, fused parts or gaps K93Q): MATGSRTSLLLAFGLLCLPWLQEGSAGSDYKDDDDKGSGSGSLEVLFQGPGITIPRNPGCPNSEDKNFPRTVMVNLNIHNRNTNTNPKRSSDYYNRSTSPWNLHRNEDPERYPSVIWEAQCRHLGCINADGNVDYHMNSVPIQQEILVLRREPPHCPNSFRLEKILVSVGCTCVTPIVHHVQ

For orientation: IC50 means the concentration at which inhibition is half-maximal. A higher IC50 goes with weaker potency in that assay. As to `Cc1conc1C(=O)N[C@H](c1cn2ccc([C@H](NC(=O)CC3CC3(F)F)C3CC3)nc2n1)C1CCC(F)(F)CC1` (single isomer, unassigned) [Example 54, N—((S)-(7-((R)-Cyclopropyl(2-((R*)-2,2-difluorocyclopropyl)acetamido)methyl)imidazo[1,2-a]pyrimidin-2-yl)(4,4-difluorocyclohexyl)methyl)-4-methylisoxazole-3-carboxamide], the results for the IC50 in test [1] and in test [2] were 4500 nM and 460 nM, respectively.
Regarding `Cc1nonc1C(=O)N[C@H](c1cn2ccc([C@@H](NC(=O)CC3CC(F)(F)C3)C3CC3)nc2n1)C1CCC(F)(F)CC1` [Example 22, N—((S)-(7-((S)-Cyclopropyl(2-(3,3-difluorocyclobutyl)acetamido)methyl)imidazo[1,2-a]pyrimidin-2-yl)(4,4-difluorocyclohexyl)methyl)-4-methyl-1,2,5-oxadiazole-3-carboxamide], the IC50 in test [1] (Homo sapiens, Keratinocyte) is above 20000 nM; in test [2], 6200 nM.
For `O=C(CCC(F)(F)F)N[C@@H](c1ccn2cc([C@@H](NC(=O)c3ccnc(CC(F)(F)F)c3)C3CCC(F)(F)CC3)nc2n1)C1CC1` [Example 48, N—((S)-(7-((R)-Cyclopropyl(4,4,4-trifluorobutanamido)methyl)imidazo[1,2-a]pyrimidin-2-yl)(4,4-difluorocyclohexyl)methyl)-2-(2,2,2-trifluoroethyl)isonicotinamide], the IC50 in test [1] (Homo sapiens, Keratinocyte) stood at 170 nM; in test [2], 160 nM.
On to `CC(CC(=O)N[C@H](c1ccn2cc([C@@H](NC(=O)c3ccnc(CC(F)(F)F)c3)C3CCC(F)(F)CC3)nc2n1)C1CC1)C(F)(F)F` (single isomer, unassigned) [Example 4, N—((S)-(7-((S)-Cyclopropyl((S*)-4,4,4-trifluoro-3-methylbutanamido)methyl)imidazo[1,2-a]pyrimidin-2-yl)(4,4-difluorocyclohexyl)methyl)-2-(2,2,2-trifluoroethyl)isonicotinamide], for which the IC50 was determined as 1200 nM in test [1] and 1800 nM in test [2].
In the case of `O=C(CCC(F)(F)F)NC(c1ccn2cc([C@@H](NC(=O)c3cnn(CCC(F)(F)F)n3)C3CCC(F)(F)CC3)nc2n1)C1CC1` (single isomer, unassigned) [Example 41, N—((S)-(7-((R*)-Cyclopropyl(4,4,4-trifluorobutanamido)methyl)imidazo[1,2-a]pyrimidin-2-yl)(4,4-difluorocyclohexyl)methyl)-2-(3,3,3-trifluoropropyl)-2H-1,2,3-triazole-4-carboxamide], the values for the half-inhibitory concentration (IC50) in test [1] and in test [2] were 2500 nM and 2400 nM, respectively.
As to `O=C(CCC(F)(F)F)N[C@H](c1ccn2cc([C@@H](NC(=O)c3cnn(CC4CC4)n3)C3CCC(F)(F)CC3)nc2n1)C1CC1` [Example 31, N—((S)-(7-((S)-Cyclopropyl(4,4,4-trifluorobutanamido)methyl)imidazo[1,2-a]pyrimidin-2-yl)(4,4-difluorocyclohexyl)methyl)-2-(cyclopropylmethyl)-2H-1,2,3-triazole-4-carboxamide], the IC50 in test [1] (Homo sapiens, Keratinocyte) is above 20000 nM; in test [2], 3000 nM.
`Cc1nonc1C(=O)N[C@H](c1cn2ccc([C@H](NC(=O)CC3CC3(F)F)C3CC3)nc2n1)C1CCC(F)(F)CC1` (single isomer, unassigned) [Example 52, N—((S)-(7-((R)-Cyclopropyl(2-((R*)-2,2-difluorocyclopropyl)acetamido)methyl)imidazo[1,2-a]pyrimidin-2-yl)(4,4-difluorocyclohexyl)methyl)-4-methyl-1,2,5-oxadiazole-3-carboxamide]: the IC50 was 2800 nM in test [1] and 680 nM in test [2].
Turning to `O=C(CCC(F)(F)F)NC(c1ccn2cc([C@@H](NC(=O)c3cnn(CCC(F)(F)F)c3)C3CCC(F)(F)CC3)nc2n1)C1CC1` (stereo in doubt) [Example 50, N—((S)-(7-((R*)-Cyclopropyl(4,4,4-trifluorobutanamido)methyl)imidazo[1,2-a]pyrimidin-2-yl)(4,4-difluorocyclohexyl)methyl)-1-(3,3,3-trifluoropropyl)-1H-pyrazole-4-carboxamide], the IC50 in test [1] (Homo sapiens, Keratinocyte) is above 20000 nM; in test [2] it was 6800 nM.
Consider `O=C(CC1CC(F)(F)C1)N[C@@H](c1ccn2cc([C@@H](NC(=O)[C@@H]3C[C@H]3C(F)(F)F)C3CCC(F)(F)CC3)nc2n1)C1CC1` (relative stereo) [Example 11, trans-(1S*,2S*)—N—((S)-(7-((R)-Cyclopropyl(2-(3,3-difluorocyclobutyl)acetamido)methyl)imidazo[1,2-a]pyrimidin-2-yl)(4,4-difluorocyclohexyl)methyl)-2-(trifluoromethyl)cyclopropane-1-carboxamide], for which the IC50 is 540 nM in test [1] (Homo sapiens, Keratinocyte) and 660 nM in test [2].
Taken in the same sequence, the figures for `O=C(CC1CC(F)(F)C1)N[C@@H](c1ccn2cc([C@@H](NC(=O)c3conc3C3CC3)C3CCC(F)(F)CC3)nc2n1)C1CC1` [Example 24, 3-Cyclopropyl-N—((S)-(7-((R)-cyclopropyl(2-(3,3-difluorocyclobutyl)acetamido)methyl)imidazo[1,2-a]pyrimidin-2-yl)(4,4-difluorocyclohexyl)methyl)isoxazole-4-carboxamide] were 180 nM and 180 nM.
As to `O=C(CC1CC(F)(F)C1)N[C@@H](c1ccn2cc([C@@H](NC(=O)c3ncnn3CC3CC3)C3CCC(F)(F)CC3)nc2n1)C1CC1` [Example 15, N—((S)-(7-((R)-Cyclopropyl(2-(3,3-difluorocyclobutyl)acetamido)methyl)imidazo[1,2-a]pyrimidin-2-yl)(4,4-difluorocyclohexyl)methyl)-1-(cyclopropylmethyl)-1H-1,2,4-triazole-5-carboxamide], the IC50 in test [1] (Homo sapiens, Keratinocyte) stood at 1400 nM; in test [2] it was 290 nM.
With `CC(C)n1nccc1C(=O)N[C@H](c1cn2ccc(C(NC(=O)CCC(F)(F)F)C3CC3)nc2n1)C1CCC(F)(F)CC1` (single isomer, unassigned) [Example 46, N—((S)-(7-((S*)-Cyclopropyl(4,4,4-trifluorobutanamido)methyl)imidazo[1,2-a]pyrimidin-2-yl)(4,4-difluorocyclohexyl)methyl)-1-isopropyl-1H-pyrazole-5-carboxamide], the IC50 in test [1] and in test [2] was 2600 nM each time.
For the compound `O=C(CC1CC(F)(F)C1)N[C@H](c1ccn2cc([C@@H](NC(=O)c3conc3CCC(F)(F)F)C3CCC(F)(F)CC3)nc2n1)C1CC1` [Example 29, N—((S)-(7-((S)-Cyclopropyl(2-(3,3-difluorocyclobutyl)acetamido)methyl)imidazo[1,2-a]pyrimidin-2-yl)(4,4-difluorocyclohexyl)methyl)-3-(3,3,3-trifluoropropyl)isoxazole-4-carboxamide], the IC50 in test [1] (Homo sapiens, Keratinocyte) is 2600 nM; in test [2], 2300 nM.
In the case of `O=C(CCC(F)(F)F)NC(c1ccn2cc([C@@H](NC(=O)c3ccn(CCC(F)(F)F)n3)C3CCC(F)(F)CC3)nc2n1)C1CC1` (single isomer, unassigned) [Example 43, N—((S)-(7-((R*)-Cyclopropyl(4,4,4-trifluorobutanamido)methyl)imidazo[1,2-a]pyrimidin-2-yl)(4,4-difluorocyclohexyl)methyl)-1-(3,3,3-trifluoropropyl)-1H-pyrazole-3-carboxamide], the IC50 in test [1] is around 20000 nM; in test [2] it was 5700 nM.
